Measured values published in US9302999B2, “Substituted triazoles as herbicides” (E. I. DU PONT DE NEMOURS AND COMPANY, priority 2012, dated 2016).

Key:
Type in all cases: in vivo
[1] = system: common (oilseed) sunflower (Helianthus annuus); assay: Test C pre-/postemergence: sunflower; conditions: Preemergence
Summary of the method: (§1)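 Preemergence on seeds in loam/sand, postemergence on 2–18 cm (1–4-leaf) plants in peat-based medium; compounds in non-phytotoxic solvent with surfactant. After 13–15 days in greenhouse, visual rating versus controls, 0 (no effect) to 100 (complete control).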

[2] = system: lambsquarters (Chenopodium album); assay: Test D pre-/postemergence: lambsquarters
Summary of the method: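 Visual 0–100 rating versus untreated controls (0 no effect, 100 complete control), taken 14 to 21 days after treatment in a controlled growth environment. Preemergence: silt loam soil. Postemergence: peat moss/vermiculite medium, plants 2 to 18 cm, 1- to 4-leaf stage. Solvent mixture with surfactant.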

[3] = system: woolly cupgrass (Eriochloa villosa); assay: Test C pre-/postemergence: woolly cupgrass
Summary of the method: as §1

[4] = system: bermudagrass (Cynodon dactylon); assay: Test C pre-/postemergence: bermudagrass
Summary of the method: as §1

[5] = system: windgrass (Apera spica-venti); assay: Test D pre-/postemergence: windgrass
Excerpt: (§2) Seeds of plant species selected from bluegrass (annual bluegrass, Poa annua), blackgrass (Alopecurus myosuroides), canarygrass (Phalaris minor), chickweed (common chickweed, Stellaria media), galium (catchweed bedstraw, Galium aparine), bromegrass, downy (downy bromegrass, Bromus tectorum), field poppy (Papaver rhoeas), field violet (Viola arvensis), foxtail, green (green foxtail, Setaria viridis), deadnettle (henbit deadnettle, Lamium amplexicaule), ryegrass, Italian (Italian ryegrass, Lolium multiflorum), kochia (Kochia scoparia), lambsquarters (Chenopodium album), oilseed rape (Brassica napus), pigweed (Amaranthus retroflexus), Russian thistle (Salsola iberica), chamomile (scentless chamomile, Matricaria inodora), speedwell (bird's-eye speedwell, Veronica persica), barley, spring (spring barley, Hordeum vulgare), wheat, spring (spring wheat, Triticum aestivum), buckwheat, wild (wild buckwheat, Polygonum convolvulus), mustard, wild (wild mustard, Sinapis arvensis), oat, wild (wild oat, Avena fatua), radish, wild (wild radish, Raphanus raphanistrum), windgrass (Apera spica-venti), barley, winter (winter barley, Hordeum vulgare), and wheat, winter (winter wheat, Triticum aestivum) were planted into a silt loam soil and treated preemergence with test chemicals formulated in a non-phytotoxic solvent mixture which included a surfactant. At the same time, these same crop and weed species were planted in pots containing the planting medium comprising spaghnum peat moss, vermiculite, wetting agent and starter nutrients and treated with postemergence applications of the test chemicals formulated in the same manner. Plants ranged in height from 2 to 18 cm (1- to 4-leaf stage).
(§3) Treated plants and controls were maintained in a controlled growth environment for 14 to 21 days after which time all species were compared to controls and visually evaluated. Plant response ratings, summarized in Table D, are based on a scale of 0 to 100 where 0 is no effect and 100 is complete control. A dash (-) response means no test result.

[6] = system: barley, winter (winter barley, Hordeum vulgare); assay: Test D pre-/postemergence: barley, winter
Excerpt: as §2, §3

[7] = 31 g ai/ha, scale of 0 to 100, 0 is no effect, 100 is complete control
[8] = 62 g ai/ha, scale of 0 to 100, 0 is no effect, 100 is complete control
[9] = 125 g ai/ha, scale 0 to 100, 0 no effect, 100 complete control
[10] = 250 g ai/ha, scale 0 to 100, 0 no effect, 100 complete control
[11] = Postemergence, 31 g ai/ha, scale 0 to 100 (0 no effect, 100 complete control)
[12] = Postemergence, 62 g ai/ha, scale 0 to 100 (0 no effect, 100 complete control)
[13] = Postemergence, 125 g ai/ha, scale 0 to 100, 0 no effect, 100 complete control
[14] = Postemergence, 250 g ai/ha, scale 0 to 100 (0 no effect, 100 complete control)
[15] = Preemergence, 31 g ai/ha, scale 0 to 100, 0 no effect, 100 complete control
[16] = Preemergence, 62 g ai/ha, scale 0 to 100
[17] = Preemergence, 125 g ai/ha, scale 0 to 100
[18] = Preemergence, 250 g ai/ha, scale 0 to 100
[19] = Postemergence, 250 g ai/ha, scale 0 to 100
[20] = Preemergence, 31 g ai/ha, scale of 0 to 100, 0 is no effect, 100 is complete control
[21] = Preemergence, 62 g ai/ha, scale of 0 to 100, 0 is no effect, 100 is complete control
[22] = Preemergence, 125 g ai/ha, scale 0 to 100, 0 no effect, 100 complete control
[23] = Preemergence, 250 g ai/ha, scale 0 to 100, 0 no effect, 100 complete control
[24] = Preemergence, 62 g ai/ha, scale 0 to 100, 0 no effect, 100 complete control
[25] = Postemergence, 16 g ai/ha, scale 0 to 100
[26] = Preemergence, 16 g ai/ha, scale 0 to 100, 0 no effect, 100 complete control
[27] = Postemergence, 16 g ai/ha, scale 0 to 100, 0 no effect, 100 complete control
[28] = Preemergence, 16 g ai/ha, scale 0 (no effect) to 100 (complete control)

In the case of FC(F)(F)COc1nn(-c2ccc(C(F)(F)F)cc2)nc1Cc1ccnc(C(F)(F)F)c1 [Compound 14, 4-[[5-(2,2,2-trifluoroethoxy)-2-[4-(trifluoromethyl)phenyl]-2H-1,2,3-triazol-4-yl]methyl]-2-(trifluoromethyl)pyridine], the “Plant response rating, Sunflower” value [1, 7] is reported as 0, the “Plant response rating, Sunflower” value [1, 8] is reported as 0 and the “Plant response rating, Sunflower” value [1, 9] is reported as 0. For the same compound, the “Plant response rating, Sunflower” value [1, 10] was 15, the “Plant response rating: Lambsquarters” value [2, 11] was 80 and the “Plant response rating: Lambsquarters” value [2, 12] was 80. For the same compound, the “Plant response rating: Lambsquarters” value [2, 13] was 100, the “Plant response rating: Lambsquarters” value [2, 14] was 100 and the “Plant response rating, Lambsquarters” value [2, 15] was 0. For the same compound, the “Plant response rating, Lambsquarters” value [2, 16] was 40, the “Plant response rating, Lambsquarters” value [2, 17] was 60 and the “Plant response rating, Lambsquarters” value [2, 18] was 75. For the same compound, the “Plant response rating, Cupgrass, Woolly” value [3, 11] was 5, the “Plant response rating, Cupgrass, Woolly” value [3, 12] was 5 and the “Plant response rating, Cupgrass, Woolly” value [3, 13] was 35. For the same compound, the “Plant response rating, Cupgrass, Woolly” value [3, 19] was 65, the “Plant response rating, Cupgrass, Woolly” value [3, 20] was 5 and the “Plant response rating, Cupgrass, Woolly” value [3, 21] was 75. For the same compound, the “Plant response rating, Cupgrass, Woolly” value [3, 22] was 75, the “Plant response rating, Cupgrass, Woolly” value [3, 23] was 80 and the “Plant response rating, Bermudagrass” value [4, 11] was 0. For the same compound, the “Plant response rating, Bermudagrass” value [4, 12] was 15, the “Plant response rating, Bermudagrass” value [4, 13] was 55 and the “Plant response rating, Bermudagrass” value [4, 19] was 65. The “Plant response rating, Bermudagrass” value [4, 20] was 98, the “Plant response rating, Bermudagrass” value [4, 24] was 100 and the “Plant response rating, Bermudagrass” value [4, 22] was 100. For the same compound, the “Plant response rating, Bermudagrass” value [4, 23] was 100, the “Plant response rating: Windgrass” value [5, 11] was 30 and the “Plant response rating: Windgrass” value [5, 12] was 40. For the same compound, the “Plant response rating: Windgrass” value [5, 13] was 75, the “Plant response rating: Windgrass” value [5, 14] was 100 and the “Plant response rating, Windgrass” value [5, 15] was 10. For the same compound, the “Plant response rating, Windgrass” value [5, 16] was 20, the “Plant response rating, Windgrass” value [5, 17] was 40 and the “Plant response rating, Windgrass” value [5, 18] was 85. The “Plant response rating: Barley, Winter” value [6, 11] was 10, the “Plant response rating: Barley, Winter” value [6, 12] was 25 and the “Plant response rating: Barley, Winter” value [6, 13] was 35. For the same compound, the “Plant response rating: Barley, Winter” value [6, 14] was 40, the “Plant response rating, Barley, Winter” value [6, 15] was 0 and the “Plant response rating, Barley, Winter” value [6, 16] was 0. The “Plant response rating, Barley, Winter” value [6, 17] was 10 and the “Plant response rating, Barley, Winter” value [6, 18] was 35.
With Cc1nn(-c2ccc(C(F)(F)F)c(F)c2)nc1Oc1ccnc(C(F)(F)F)c1 [Compound 148] the “Plant response rating, Sunflower” value [1, 7] was 0, the “Plant response rating, Sunflower” value [1, 8] was 0 and the “Plant response rating, Sunflower” value [1, 9] was 10. For the same compound, the “Plant response rating, Sunflower” value [1, 10] was 10, the “Plant response rating: Lambsquarters” value [2, 11] was 85 and the “Plant response rating: Lambsquarters” value [2, 12] was 95. For the same compound, the “Plant response rating: Lambsquarters” value [2, 13] was 95, the “Plant response rating, Lambsquarters” value [2, 25] was 85 and the “Plant response rating, Lambsquarters” value [2, 26] was 35. For the same compound, the “Plant response rating, Lambsquarters” value [2, 15] was 40, the “Plant response rating, Lambsquarters” value [2, 16] was 80 and the “Plant response rating, Lambsquarters” value [2, 17] was 90. For the same compound, the “Plant response rating, Cupgrass, Woolly” value [3, 11] was 55, the “Plant response rating, Cupgrass, Woolly” value [3, 12] was 55 and the “Plant response rating, Cupgrass, Woolly” value [3, 13] was 65. The “Plant response rating, Cupgrass, Woolly” value [3, 19] was 75, the “Plant response rating, Cupgrass, Woolly” value [3, 20] was 50 and the “Plant response rating, Cupgrass, Woolly” value [3, 21] was 90. For the same compound, the “Plant response rating, Cupgrass, Woolly” value [3, 22] was 95, the “Plant response rating, Cupgrass, Woolly” value [3, 23] was 98 and the “Plant response rating, Bermudagrass” value [4, 11] was 10. The “Plant response rating, Bermudagrass” value [4, 12] was 30, the “Plant response rating, Bermudagrass” value [4, 13] was 50 and the “Plant response rating, Bermudagrass” value [4, 19] was 55. The “Plant response rating, Bermudagrass” value [4, 20] was 98, the “Plant response rating, Bermudagrass” value [4, 21] was 100 and the “Plant response rating, Bermudagrass” value [4, 22] was 100. The “Plant response rating, Bermudagrass” value [4, 23] was 100, the “Plant response rating: Windgrass” value [5, 12] was 60 and the “Plant response rating: Windgrass” value [5, 13] was 80. For the same compound, the “Plant response rating, Windgrass” value [5, 25] was 15, the “Plant response rating, Windgrass” value ([5]; Postemergence, 31 g ai/ha, scale 0 to 100) was 30 and the “Plant response rating, Windgrass” value [5, 26] was 5. The “Plant response rating, Windgrass” value [5, 15] was 10, the “Plant response rating, Windgrass” value [5, 16] was 35 and the “Plant response rating, Windgrass” value [5, 17] was 90. The “Plant response rating: Barley, Winter” value [6, 11] was 20, the “Plant response rating: Barley, Winter” value [6, 12] was 25 and the “Plant response rating: Barley, Winter” value [6, 13] was 30. The “Plant response rating, Barley, Winter” value [6, 25] was 10, the “Plant response rating, Barley, Winter” value [6, 26] was 0 and the “Plant response rating, Barley, Winter” value [6, 15] was 0. The “Plant response rating, Barley, Winter” value [6, 16] was 5 and the “Plant response rating, Barley, Winter” value [6, 17] was 5.
COc1nn(-c2ccc(C(F)(F)F)cc2)nc1Cc1ccnc(C(F)(F)F)c1 [Compound 15, 4-[[5-methoxy-2-[4-(trifluoromethyl)phenyl]-2H-1,2,3-triazol-4-yl]methyl]-2-(trifluoromethyl)pyridine] was tested, and the “Plant response rating, Sunflower” value ([1]; 16 g ai/ha, scale 0 (no effect) to 100 (complete control)) was 0, the “Plant response rating, Sunflower” value [1, 7] was 0 and the “Plant response rating, Sunflower” value [1, 8] was 0. For the same compound, the “Plant response rating, Sunflower” value [1, 9] was 25, the “Plant response rating: Lambsquarters” value [2, 11] was 100 and the “Plant response rating: Lambsquarters” value [2, 12] was 100. For the same compound, the “Plant response rating: Lambsquarters” value [2, 13] was 100, the “Plant response rating: Lambsquarters” value [2, 14] was 100 and the “Plant response rating, Lambsquarters” value [2, 25] was 50. The “Plant response rating, Lambsquarters” value [2, 15] was 0, the “Plant response rating, Lambsquarters” value [2, 16] was 90 and the “Plant response rating, Lambsquarters” value [2, 17] was 100. For the same compound, the “Plant response rating, Lambsquarters” value [2, 18] was 100, the “Plant response rating, Cupgrass, Woolly” value [3, 27] was 5 and the “Plant response rating, Cupgrass, Woolly” value [3, 11] was 5. The “Plant response rating, Cupgrass, Woolly” value [3, 12] was 5, the “Plant response rating, Cupgrass, Woolly” value [3, 13] was 75 and the “Plant response rating, Cupgrass, Woolly” value [3, 28] was 5. For the same compound, the “Plant response rating, Cupgrass, Woolly” value [3, 20] was 45, the “Plant response rating, Cupgrass, Woolly” value [3, 21] was 85 and the “Plant response rating, Cupgrass, Woolly” value [3, 22] was 95. For the same compound, the “Plant response rating, Bermudagrass” value [4, 27] was 5, the “Plant response rating, Bermudagrass” value [4, 11] was 5 and the “Plant response rating, Bermudagrass” value [4, 12] was 15. For the same compound, the “Plant response rating, Bermudagrass” value [4, 13] was 35, the “Plant response rating, Bermudagrass” value [4, 28] was 100 and the “Plant response rating, Bermudagrass” value [4, 20] was 100. The “Plant response rating, Bermudagrass” value [4, 24] was 100, the “Plant response rating, Bermudagrass” value [4, 22] was 100 and the “Plant response rating: Windgrass” value [5, 11] was 10. The “Plant response rating: Windgrass” value [5, 12] was 25, the “Plant response rating: Windgrass” value [5, 13] was 75 and the “Plant response rating: Windgrass” value [5, 14] was 100. For the same compound, the “Plant response rating, Windgrass” value [5, 25] was 5, the “Plant response rating, Windgrass” value [5, 15] was 30 and the “Plant response rating, Windgrass” value [5, 16] was 40. For the same compound, the “Plant response rating, Windgrass” value [5, 17] was 100, the “Plant response rating, Windgrass” value [5, 18] was 100 and the “Plant response rating: Barley, Winter” value [6, 11] was 10. The “Plant response rating: Barley, Winter” value [6, 12] was 15, the “Plant response rating: Barley, Winter” value [6, 13] was 20 and the “Plant response rating: Barley, Winter” value [6, 14] was 40. The “Plant response rating, Barley, Winter” value [6, 25] was 10, the “Plant response rating, Barley, Winter” value [6, 15] was 0 and the “Plant response rating, Barley, Winter” value [6, 16] was 5. For the same compound, the “Plant response rating, Barley, Winter” value [6, 17] was 20 and the “Plant response rating, Barley, Winter” value [6, 18] was 30.
